2 compounds from patent publication US20250255847A1, “[…]s: Novel Drugs for Triple Negative Breast Cancer” (SIMMARON RSEARCH INC, priority 2024, published 2025) can be followed below.

Each structure is given as a SMILES string.

For series [1], the system named is RANTES. Description: RANTES real-time PCR and ELISA in MDA-MB-468 cells. The series is classed as cell-based, human. The following applies: 20 nM; for gene expression of RANTES (real-time PCR): 5 hrs post-treatment; for protein expression of RANTES (ELISA): 48 hrs post treatment. Here is the method:
FIG. 10 illustrates an embodiment of the present invention and illustrates SIM-1 and SIM-2 inhibit expressions of IL6, RANTES, and other STAT3-dependent tumor promoting genes and proteins. (A) A gene array of STAT3 dependent 66 genes (listed in Table 1) was performed in mRNA samples of MDA-MB-468 cells. Realtime PCR plate coated with 66 primer sets of STAT3-dependent genes was run for four conditions including control, EGF (25 ng/mL), EGF+SIM-1 (10 nM) and EGF+SIM-2 (10 nM). The resultant Ct value was normalized with four different housekeeping genes, and then summarized with a heatmap analyses drawn in Morpheus server of Broad Institute. […] (C) The cloning of STAT3 response element of IL6 promoter upstream of GFP reporter was performed by GeneCopoea genome editing service (Rockville, MD). The bit score map and sequence of consensus STAT3 response element or SEQ ID NO: 2 was shown below. EGFP reporter assay was performed in EGF-induced (20 ng/mL) MDA-MB-468 after treatments of increasing doses of (D) SIM-1 and (E) SIM-2 for 5 hrs. Briefly, MDA-MB-468 cells were transfected with the plasmid for 24 hrs using Lipofectamine transfection strategy followed by the treatment with EGF (20 ng/mL) alone and together with increasing doses SIM-1 and SIM-2 for additional 5 hrs. After that live cells were recorded at Ex:Em=485/535 nm wavelength for GFP activity. (F) The scrambled STAT3 response element in IL6 promoter or SEQ ID NO: 3 was also synthesized partnering with GeneCopoea. One-way ANOVA (treatment as effector) was adopted to test the significance between groups at **p<0.01, #p<0.005, and *p<0.05. (G) The GFP reporter activity was measured where the scrambled gene was cloned upstream of eGFP reporter. Results are mean±SD of three different experiments Ns=no significance. (H) Realtime PCR analyses of IL6 was performed in MDA-MB-468 cells maintained under control, EGF (25 ng/mL), EGF+SIM-1(20 nM), and EGF+SIM-2 (20 nM) conditions for 5 hrs. (I) ELISA analysis of IL6 was performed after 48 hrs in MDA-MB-468 cells kept under similar treatment conditions. (J) Realtime PCR (5 hrs post-treatment) and (K) ELISA analyses of RANTES (48 hrs post treatment) were performed under similar condition. Results are mean±SD of three different experiments. One-way ANOVA (treatment as effector) was adopted to test the significance between groups at ***p<0.001, **p<0.01, and *p<0.05.
ELISA assay. IL6 (BD OptEIA™; Cat #555220) and RANTES (Thermo; Cat #EHRNTS) ELISA was performed as per manufacturer's protocol. […]
Once the transcriptional regulation of STAT3-dependent genes was confirmed, the quantification of IL6 was performed. […]

Series [2] can be described thus: Solubility in aqueous solvent. It is filed as physicochemical.
Series [3] has as its system TM00096 human TNBC tumor. Description: Tumor growth in patient-derived xenograft (PDX) mouse model of TNBC. The series is classed as in vivo. The following applies: for tumor growth by infrared 2DG image analysis: 2 mg/Kg Bwt i.p., end of 4th week; for final tumor volume (mean±SD): after 4 weeks (2 weeks dosing 2 mg/Kg Bwt i.p. alternate days + 2 weeks follow-up), vehicle 949.15±769.15; for initial tumor volume (mean±SD): day 0, 2 mg/Kg Bwt i.p. every alternate day for two weeks. The procedure: FIG. 12 illustrates an embodiment of the present invention and illustrates SIM-1 and SIM-2 arrest the growth of human TNBC tumor in patient-derived xenograft mouse model. TM00096 tumor (origin of invasive ductal carcinoma isolated from a person) was seeded in the flank of 6-week-old female SCID mice by Jackson Laboratory and then shipped to our research facility. Once the tumor reached ˜4 mm in size (˜30 mm^3 in volume), n=6 mice/group were treated by vehicle (5% DMSO), SIM-1 and SIM-2 (2 mg/Kg Bwt mixed with 5% DMSO) via i.p. for 2 weeks in every alternate day. The tumor size was monitored accordingly during the treatment and two more weeks after the last dose to evaluate the recurrence. After 4 weeks, Mice received IRDye 800-tagged 2DG (2-deoxy glucose) probe via tail vein and then imaged in infrared scanner. […] Red spots enclosed in a squares are tumor tissue. Other red spots are non-specific organs with high metabolic activity. (B) Tumor size was measured every alternate day for 4 weeks by a digital caliper and then the volume was calculated using the formula 0.5*Length*Width^2. […] (D) Body weight was recorded during the course of the study to monitor the adverse metabolic outcome due to the drug administration. (E) The heart rate was monitored at 0-, 7-, 14-, and 28-days post SIM-1 and SIM-2 treatments by MouseStat Jr console (Kent Scientific) as per the manufacturer's instruction. (F) At the end of the study, the gross motor performance was recorded for n=6 (i) vehicle, (ii) SIM-1-, and (iii) SIM-2-treated mice. […] Gross movement parameters including (G) the total distance traveled, and (H) the average speed were monitored and plotted by scatter histograms (n=6/group; not significant as shown by one-way ANOVA).
Acquisition, housing, and treatment of PDX mice. Grade 3 invasive ductal carcinoma tumor fragments were harvested from a patient, genotyped for ER-, PR-, and Her2low, and were engrafted in the flank region of 6-to-7-week-old female NOD.Cg-Prkdcscid Il2rgtm1Wjl/SzJ mouse. These tumor-bearing mice were commercially purchased from Jackson Laboratories (Cat #TM00096). Since these mice are severely immunocompromised, special housing was required in a barrier room with restricted air flow and sterile foods. All animal studies were performed under an Institutional Animal Care and Use Committee-approved protocol (Study ID #). […] For the treatment, 2 mg/Kg bwt doses of both SIM-1 and SIM-2 were dissolved in 5% DMSO and then administered intraperitoneally every alternate day for two weeks and followed up for additional two weeks. To ensure safety and toxicity, vital health parameters such as body weight, heart rate, and body temperature were recorded every alternate day for one month. Tumor growth was assessed every alternate day for one month by a digital caliper. Tumor volume was estimated by the formula 0.5× (length×width2). The treatment started once the tumor reached 4 mm in size with an approximate volume of ˜30 mm^3. Mice received drugs for two weeks and left untreated for an additional two weeks to monitor the effect of drug withdrawal on the tumor size. On the penultimate day of the study, mice were injected with 100 μL of […] 2DG dye. The next day, mice were euthanized and then imaged in a Li—CoR infrared scanner to measure tumor size. After that, tumor tissues were harvested from the flank, washed in cold PBS, again imaged with a scalebar, and finally preserved in a −80° C. freezer for subsequent analyses such as genetic and immunoassays.
This example provides a representative experiment of the present invention that studies the effects of both SIM-1 and SIM-2 on the regression and growth arrest of tumors in vivo in the PDX mouse model of TNBC. […]

As for `O=C(O)CCC(=O)NCc1csc2ccc(Cl)cc12` [SIM-1, 4-[(5-chloro-1-benzothiophen-3-yl)methylamino]-4-oxobutanoic acid], in series [1], the “gene expression of RANTES (real-time PCR)” value is given as “significantly downregulated” and the “protein expression of RANTES (ELISA)” value is “significantly downregulated”. For the same compound, in series [2], the “solubility in aqueous solvent” value was “partly soluble to insoluble”. Also, in series [3], the “tumor growth by infrared 2DG image analysis” value was “significantly arrested the growth”, the “final tumor volume (mean±SD)” value came to 126.69±29.98 mm^3 and the “initial tumor volume (mean±SD)” value was determined as 37.65±15.41 mm^3.
Consider `CCOC(=O)c1c(NC(C)=O)sc2c(Cl)c(/C=N/O)ccc12` [SIM-2, ethyl 2-acetamido-7-chloro-6-(hydroxyiminomethyl)-1-benzothiophene-3-carboxylate], for which, in series [1], the “gene expression of RANTES (real-time PCR)” value is listed as “significantly downregulated” and the “protein expression of RANTES (ELISA)” value is “significantly downregulated”. Further, the “solubility in aqueous solvent” value in series [2] was “partly soluble to insoluble”. Moreover, in series [3], the “tumor growth by infrared 2DG image analysis” value was “significantly arrested the growth”, the “final tumor volume (mean±SD)” value came out at 134.09±41.77 mm^3 and the “initial tumor volume (mean±SD)” value is 37.43±7.07 mm^3.
